Reference: patent US20230002334A1, “TRPM8 MODULATORS” (Givaudan SA, priority 2019, published 2023)

These compounds were tested against T1, hTRPM8 (Homo sapiens, UniProt Q7Z2W7) (assay: Assay on TRPM8 modulators: calcium imaging (Fluo-4, Flexstation) in HEK293 cell line stably expressing hTRPM8). Conditions: HEK293 cells stably expressing hTRPM8, calcium influx, sigmoidal dose-response fit; read-out: EC50.
T1 construct: expressed in transfected cells
Format: cell-based
Protocol: A HEK293 cell line stably expressing hTRPM8 was generated according to Klein et al., (Chem. Senses 36: 649-658, 2011) and receptor activation was monitored by calcium imaging in a Flexstation. For Ca-imaging assays of TRPM8 channel activation, cells were seeded on day 0 at a density of 12000 cells per well in Dulbecco's modified Eagle medium (DMEM) containing 9% foetal bovine serum in black, clear bottom 96-well plates that had been coated with 0.001% polyethyleneimine (molecular weight=60 000, Acros Organics). On day 2, agonists were evaluated via calcium imaging using Fluo-4. Briefly, growth medium was discarded, and the cells were incubated in the dark for 1 h at 37° C. in 50 μL loading buffer consisting of 2.7 μM Fluo-4 AM (Invitrogen) and […] probenecid (Sigma-Aldrich) in DMEM (without serum). After incubation, the plates were washed five times with 100 μL of assay buffer (in mM: 130 NaCl, 5 KCl, 10 HEPES, 2 CaCl2, and 10 glucose, pH7.4.) and further incubated in the dark at room temperature for 30 min. The cells were then washed five times with 100 μL assay buffer and then calcium influx to serial dilutions of inventive compounds were measured in a Flexstation 3 (Molecular Devices). Receptor activation was initiated following addition of 20 μl of a 10-fold concentrated ligand stock solution, which is also prepared in assay buffer. Fluorescence was continuously monitored for 15 seconds prior to ligand addition and for 105 seconds after ligand addition, for a total of 120 seconds. Maximal receptor activation in relation to solvent control and relative to 31.6 μM menthol is determined. Data from serial dilutions were processed with a KNIME workflow to fit a sigmoidal dose-response curve and to extrapolate EC50 values.

T1 sequence (Q7Z2W7 whole entry): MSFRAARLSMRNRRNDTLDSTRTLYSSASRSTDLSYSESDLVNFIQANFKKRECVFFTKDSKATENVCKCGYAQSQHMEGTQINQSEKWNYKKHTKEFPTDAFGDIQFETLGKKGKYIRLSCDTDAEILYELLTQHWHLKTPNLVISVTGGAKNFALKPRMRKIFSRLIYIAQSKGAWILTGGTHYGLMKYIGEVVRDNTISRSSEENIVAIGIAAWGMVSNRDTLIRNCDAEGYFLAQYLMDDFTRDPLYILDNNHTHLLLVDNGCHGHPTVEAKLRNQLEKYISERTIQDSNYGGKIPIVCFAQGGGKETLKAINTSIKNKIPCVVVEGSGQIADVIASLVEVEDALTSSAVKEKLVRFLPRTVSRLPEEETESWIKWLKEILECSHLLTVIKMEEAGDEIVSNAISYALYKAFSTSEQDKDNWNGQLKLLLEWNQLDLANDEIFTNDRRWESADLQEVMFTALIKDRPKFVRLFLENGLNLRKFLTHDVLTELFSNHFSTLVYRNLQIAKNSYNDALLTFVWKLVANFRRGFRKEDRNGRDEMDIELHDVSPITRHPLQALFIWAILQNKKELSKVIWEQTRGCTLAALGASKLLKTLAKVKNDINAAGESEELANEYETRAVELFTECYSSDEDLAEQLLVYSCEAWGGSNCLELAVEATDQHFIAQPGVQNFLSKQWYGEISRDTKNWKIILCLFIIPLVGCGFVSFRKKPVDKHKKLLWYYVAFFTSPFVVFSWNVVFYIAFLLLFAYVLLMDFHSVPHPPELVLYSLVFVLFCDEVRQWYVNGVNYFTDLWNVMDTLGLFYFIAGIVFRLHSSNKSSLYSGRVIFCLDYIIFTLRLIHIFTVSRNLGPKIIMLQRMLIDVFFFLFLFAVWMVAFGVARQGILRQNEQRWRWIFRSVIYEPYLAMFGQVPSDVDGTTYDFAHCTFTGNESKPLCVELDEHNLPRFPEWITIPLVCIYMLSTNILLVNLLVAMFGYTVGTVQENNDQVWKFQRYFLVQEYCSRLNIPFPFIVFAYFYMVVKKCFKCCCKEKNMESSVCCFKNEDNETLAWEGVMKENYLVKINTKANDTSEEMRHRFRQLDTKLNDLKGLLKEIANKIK

| SMILES | EC50 |
| --- | --- |
| CCN1OC(C)(C)[C@@H]2C[C@](C)(c3ccccc3)C[C@H](C)[C@H]21 (racemic) [Compound 55, rac-(3aR,5R,7S,7aR)-1-ethyl-3,3,5,7-tetramethyl-5-phenyloctahydrobenzo[c]isoxazole] | 50 to 300 nM |
| COC(=O)c1ccc(C)c([C@@]2(C)C[C@@H]3[C@@H]([C@@H](C)C2)N(C)OC3(C)C)c1 (racemic) [Compound 137, rac-methyl 4-methyl-3-((3aR,5R,7S,7aR)-1,3,3,5,7-pentamethyloctahydrobenzo[c]isoxazol-5-yl)benzoate] | 50 to 300 nM |
| Cc1c(Cl)cccc1[C@]1(C)C[C@@H](C)[C@@H]2[C@@H](C1)C(C)(C)ON2C (racemic) [Compound 34, rac-(3aR,5R,7R,7aR)-5-(3-chloro-2-methylphenyl)-1,3,3,5,7-pentamethyloctahydrobenzo[c]isoxazole] | 300 to 1000 nM |
| CC(C)CC[C@@]1(C)C[C@@H]2[C@@H]([C@@H](C)C1)N(C(C)C)OC2(C)C (racemic) [Compound 112, rac-(3aR,5R,S,7aR)-5-isopentyl-1-isopropyl-3,3,5,7-tetramethyloctahydrobenzo[c]isoxazole] | 50 to 300 nM |
| CCCC[C@@H]1CC[C@@H]2[C@@H](C1)C(C)(C)ON2C(C)C (racemic) [Compound 29, rac-(3aR,5R,7aR)-5-butyl-1-isopropyl-3,3-dimethyloctahydrobenzo[c]isoxazole] | 1000 to 35000 nM |
| CCN1OC(C)(C)[C@@H]2C[C@](C)(c3ccccc3C)C[C@H](C)[C@H]21 (racemic) [Compound 54, rac-(3aR,5R,7S,7aR)-1-ethyl-3,3,5,7-tetramethyl-5-(o-tolyl)octahydrobenzo[c]isoxazole] | < 50 nM |
| C[C@H]1C[C@@](C)(c2ccc(F)c(F)c2)C[C@@H]2[C@@H]1N(C)OC2(C)C (racemic) [Compound 84, rac-(3aR,5R,7S,7aR)-5-(3,4-difluorophenyl)-1,3,3,5,7-pentamethyloctahydrobenzo[c]isoxazole] | 50 to 300 nM |
| C[C@H]1C[C@@](C)(c2cc(Cl)cc(C#N)c2)C[C@@H]2[C@@H]1N(C)OC2(C)C (racemic) [Compound 129, rac-3-chloro-5-((3aR,5R,7S,7aR)-1,3,3,5,7-pentamethyloctahydrobenzo[c]isoxazol-5-yl)benzonitrile] | < 50 nM |
| C[C@H]1C[C@@H](c2ccc(C(C)(C)C)cc2)C[C@@H]2[C@@H]1N(C)OC2(C)C (racemic) [Compound 96, rac-(3aR,5R,7S,7aR)-5-(4-(tert-butyl)phenyl)-1,3,3,7-tetramethyloctahydrobenzo[c]isoxazole] | 1000 to 35000 nM |
| CCC1(CC)C[C@@H]2[C@@H]([C@@H](C)C1)N(C)OC2(C)C (racemic) [Compound 118, rac-(3aR,7S,7aR)-5,5-diethyl-1,3,3,7-tetramethyloctahydrobenzo[c]isoxazole] | 1000 to 35000 nM |
| CCN1OC(C)(C)[C@@H]2C[C@](C)(CC=C(C)C)C[C@H](C)[C@H]21 (racemic) [Compound 53, rac-(3aR,5R,7S,7aR)-1-ethyl-3,3,5,7-tetramethyl-5-(3-methylbut-2-en-1-yl)octahydrobenzo[c]isoxazole] | 50 to 300 nM |
| CC1CC(C)C2C(C1)C(C)(C)ON2C(C)C (stereo not drawn) [Compound 11, 1-isopropyl-3,3,5,7-tetramethyloctahydrobenzo[c]isoxazol-1-ium chloride] | 300 to 1000 nM |
| Cc1cc(C)cc([C@@]2(C)C[C@@H]3[C@@H]([C@@H](C)C2)N(C)OC3(C)C)c1 (racemic) [Compound 87, rac-(3aR,5R,7S,7aR)-5-(3,5-dimethylphenyl)-1,3,3,5,7-pentamethyloctahydrobenzo[c]isoxazole] | 300 to 1000 nM |
| CCc1ccccc1[C@H]1C[C@@H]2[C@@H]([C@@H](C)C1)N(C)OC2(C)C (racemic) [Compound 79, rac-(3aR,5R,7S,7aR)-5-(2-ethylphenyl)-1,3,3,7-tetramethyloctahydrobenzo[c]isoxazole] | 1000 to 35000 nM |
| CCCC[C@@H]1CC[C@@H]2[C@@H](C1)C(C)(C)ON2CC (racemic) [Compound 28, rac-(3aR,5R,7aR)-5-butyl-1-ethyl-3,3-dimethyloctahydrobenzo[c]isoxazole] | 300 to 1000 nM |
| COc1cccc(C2(C)CC(C)C3C(C2)C(C)(C)ON3C)n1 (stereo not drawn) [Compound 18, 5-(6-methoxypyridin-2-yl)-1,3,3,5,7-pentamethyloctahydrobenzo[c]isoxazole] | 300 to 1000 nM |
| CCN1OC(C)(C)[C@@H]2C[C@H](c3ccccc3OC)C[C@H](C)[C@H]21 (racemic) [Compound 57, rac-(3aR,5R,7S,7aR)-1-ethyl-5-(2-methoxyphenyl)-3,3,7-trimethyloctahydrobenzo[c]isoxazole] | < 50 nM |

| SMILES | EC50 |
| --- | --- |
| Cc1cccc([C@@]2(C)C[C@@H]3[C@@H]([C@@H](C)C2)N(C)OC3(C)C)c1C (racemic) [Compound 69, rac-(3aR,5R,7S,7aR)-5-(2,3-dimethylphenyl)-1,3,3,5,7-pentamethyloctahydrobenzo[c]isoxazole] | 50 to 300 nM |
| Cc1c(Cl)cccc1[C@@]1(C)C[C@@H]2[C@@H]([C@@H](C)C1)N(C)OC2(C)C (racemic) [Compound 89, rac-(3aR,5R,7S,7aR)-5-(3-chloro-2-methylphenyl)-1,3,3,5,7-pentamethyloctahydrobenzo[c]isoxazole] | 50 to 300 nM |
| CCc1ccccc1[C@H]1C[C@@H]2[C@@H]([C@@H](C)C1)N(C(C)C)OC2(C)C (racemic) [Compound 80, rac-(3aR,5R,7S,7aR)-5-(2-ethylphenyl)-1-isopropyl-3,3,7-trimethyloctahydrobenzo[c]isoxazole] | 300 to 1000 nM |
| Cc1cc(C)c([C@@]2(C)C[C@@H]3[C@@H]([C@@H](C)C2)N(C)OC3(C)C)cc1C (racemic) [Compound 38, rac-(3aR,5R,7S,7aR)-1,3,3,5,7-pentamethyl-5-(2,4,5-trimethylphenyl)octahydrobenzo[c]isoxazole] | 50 to 300 nM |
| CCC1(C)CC(C)C2C(C1)C(C)(C)ON2C (stereo not drawn) [Compound 20, 5-ethyl-1,3,3,5,7-pentamethyloctahydrobenzo[c]isoxazole] | 1000 to 35000 nM |
| CC(C)=CC[C@H]1C[C@@H]2[C@@H]([C@@H](C)C1)N(C(C)C)OC2(C)C (racemic) [Compound 62, rac-(3aR,5R,7S,7aR)-1-isopropyl-3,3,7-trimethyl-5-(3-methylbut-2-en-1-yl)octahydrobenzo[c]isoxazole] | 300 to 1000 nM |
| CC(C)c1cccc([C@@]2(C)C[C@@H]3[C@@H]([C@@H](C)C2)N(C)OC3(C)C)c1 (racemic) [Compound 93, rac-(3aR,5R,7S,7aR)-5-(3-isopropylphenyl)-1,3,3,5,7-pentamethyloctahydrobenzo[c]isoxazole] | 1000 to 35000 nM |
| Cc1cc(Cl)ccc1[C@H]1C[C@@H]2[C@@H]([C@@H](C)C1)N(C(C)C)OC2(C)C (racemic) [Compound 98, rac-(3aR,5R,7S,7aR)-5-(4-chloro-2-methylphenyl)-1-isopropyl-3,3,7-trimethyloctahydrobenzo[c]isoxazole] | 50 to 300 nM |
| Cc1cc([C@@]2(C)C[C@@H]3[C@@H]([C@@H](C)C2)N(C)OC3(C)C)cs1 (racemic) [Compound 42, rac-(3aR,5R,7S,7aR)-1,3,3,5,7-pentamethyl-5-(5-methylthiophen-3-yl)octahydrobenzo[c]isoxazole] | 50 to 300 nM |
| CC(C)N1OC(C)(C)[C@@H]2C[C@H](c3ccc(C(C)(C)C)cc3)C[C@H](C)[C@H]21 (racemic) [Compound 97, rac-(3aR,5R,7S,7aR)-5-(4-(tert-butyl)phenyl)-1-isopropyl-3,3,7-trimethyloctahydrobenzo[c]isoxazole] | 1000 to 35000 nM |
| C[C@H]1C[C@@](C)(c2ccc3ccccc3c2)C[C@@H]2[C@@H]1N(C)OC2(C)C (racemic) [Compound 45, rac-(3aR,5R,7S,7aR)-1,3,3,5,7-pentamethyl-5-(naphthalen-2-yl)octahydrobenzo[c]isoxazole] | 50 to 300 nM |
| Cc1c(C#N)cccc1C1(C)CC(C)C2C(C1)C(C)(C)ON2C (stereo not drawn) [Compound 15, 2-methyl-3-(1,3,3,5,7-pentamethyloctahydrobenzo[c]isoxazol-5-yl)benzonitrile] | 300 to 1000 nM |
| COc1ccc([C@@]2(C)C[C@@H]3[C@@H]([C@@H](C)C2)N(C(C)C)OC3(C)C)cc1 (racemic) [Compound 67, rac-(3aR,5R,7S,7aR)-1-isopropyl-5-(4-methoxyphenyl)-3,3,5,7-tetramethyloctahydrobenzo[c]isoxazole] | 1000 to 35000 nM |
| CC1CCC2C(C1)N(C)OC2(C)C (stereo not drawn) [Compound 6, 1,3,3,6-tetramethyloctahydrobenzo[c]isoxazole] | 1000 to 35000 nM |
| C[C@H]1C[C@@](C)(c2cccc(F)c2)C[C@@H]2[C@@H]1N(C)OC2(C)C (racemic) [Compound 92, rac-(3aR,5R,7S,7aR)-5-(3-fluorophenyl)-1,3,3,5,7-pentamethyloctahydrobenzo[c]isoxazole] | 50 to 300 nM |
| COc1ccc([C@]2(C)C[C@@H](C)[C@@H]3[C@@H](C2)C(C)(C)ON3C)cc1 (racemic) [Compound 36, rac-(3aR,5R,7R,7aR)-5-(4-methoxyphenyl)-1,3,3,5,7-pentamethyloctahydrobenzo[c]isoxazole] | 1000 to 35000 nM |
